Values quoted from earlier work as cited in paper PMC10458458, “Characterization of Anticancer Effects of the Analogs of DJ4, a Novel Selective Inhibitor of ROCK and MRCK Kinases” (Pharmaceuticals, 2023).

Columns and labels:
[1] = tested on: HeLa cells; design: method as in PMID 10779382; conditions: >100 µM; cited from earlier work
[2] = tested on: astrocytes; design: method as in PMID 22929997; conditions: 10 µM; cited from earlier work

C[C@@H](N)[C@H]1CC[C@H](C(=O)Nc2ccncc2)CC1 [Compound Y27632, Y27632]
effect on cytokinesis [1]: impaired cytokinesis | effect on proliferation and cell cycle [2]: promoted proliferation and progression of the cell cycle
